Measured values taken from PubChem BioAssay (NCI).
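Dose response: 5 concentrations. Exposure: 48 h. Format: 96-well plates. Endpoint: linear interpolation; highest concentration if not reached. TGI marks complete inhibition of growth.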

Key:
Assay in all cases: inhibition of tumour cell growth, NCI panel, 48 h
[1] = test system: HCT-15 colon
[2] = test system: COLO 205 colon
[3] = test system: HL-60(TB) leukemia
[4] = test system: M14 melanoma
[5] = test system: SK-OV-3 ovarian
[6] = test system: KM12 colon
[7] = test system: UO-31 renal
[8] = test system: KM20L2 colon
[9] = test system: MOLT-4 leukemia
[10] = test system: OVCAR-5 ovarian
[11] = test system: XF 498 CNS
[12] = test system: SF-295 CNS
[13] = test system: SK-MEL-5 melanoma
[14] = test system: 786-0 renal
[15] = test system: NCI-H23 lung
[16] = test system: HOP-62 NSCLC
[17] = test system: OVCAR-8 ovarian
[18] = test system: HOP-18 NSCLC
[19] = test system: HCC-2998 colon
[20] = test system: SK-MEL-2 melanoma
[21] = test system: DLD-1 colon
[22] = test system: K-562 leukemia
[23] = test system: HT29 colon
[24] = test system: NCI-H226 lung
[25] = test system: DMS 114 small cell lung
[26] = test system: IGROV1 ovarian
[27] = test system: MALME-3M melanoma
[28] = test system: NCI-H522 lung
[29] = test system: UACC-257 melanoma
[30] = test system: TK-10 renal
[31] = test system: EKVX NSCLC
[32] = test system: CAKI-1 renal
[33] = test system: RPMI-8226 leukemia
[34] = test system: SW-620 colon
[35] = test system: ACHN renal
[36] = test system: A498 renal
[37] = test system: OVCAR-4 ovarian
[38] = test system: RXF-631 renal
[39] = test system: SNB-78 CNS
[40] = test system: DMS 273 small cell lung
[41] = test system: LOX IMVI melanoma
[42] = test system: SK-MEL-28 melanoma
[43] = test system: LXFL 529 NSCLC
[44] = test system: OVCAR-3 ovarian
[45] = test system: SN12C renal
[46] = test system: NCI-H460 lung
[47] = test system: SF-539 CNS
[48] = test system: SNB-19 CNS
[49] = test system: UACC-62 melanoma
[50] = test system: M19-MEL melanoma
[51] = test system: U251 CNS
[52] = test system: CCRF-CEM leukemia
[53] = test system: SNB-75 CNS
[54] = test system: A549 NSCLC
[55] = test system: SF-268 CNS
[56] = test system: HOP-92 NSCLC
[57] = test system: RXF 393 renal
[58] = test system: SR leukemia
[59] = test system: HCT-116 colon

Nc1c(-c2ccc(Cl)cc2Cl)[n+]([O-])c2ccccc2[n+]1[O-]
TGI [1]: > 100 µM
TGI [2]: > 100 µM
TGI [3]: > 100 µM
TGI [4]: > 100 µM
TGI [5]: > 100 µM
TGI [6]: > 100 µM
TGI [7]: > 100 µM
TGI [8]: > 100 µM
TGI [9]: > 100 µM
TGI [10]: > 100 µM
TGI [11]: > 100 µM
TGI [12]: > 100 µM
TGI [13]: > 100 µM
TGI [14]: > 100 µM
TGI [15]: > 100 µM
TGI [16]: > 100 µM
TGI [17]: > 100 µM
TGI [18]: > 100 µM
TGI [19]: > 100 µM
TGI [20]: > 100 µM
TGI [21]: > 100 µM
TGI [22]: > 100 µM
TGI [23]: > 100 µM
TGI [24]: > 100 µM
TGI [25]: > 100 µM
TGI [26]: > 100 µM
TGI [27]: > 100 µM
TGI [28]: > 100 µM
TGI [29]: > 100 µM
TGI [30]: > 100 µM
TGI [31]: > 100 µM
TGI [32]: > 100 µM
TGI [33]: > 100 µM
TGI [34]: > 100 µM
TGI [35]: > 100 µM
TGI [36]: > 100 µM
TGI [37]: > 100 µM
TGI [38]: > 100 µM
TGI [39]: > 100 µM
TGI [40]: > 100 µM
TGI [41]: > 100 µM
TGI [42]: > 100 µM
TGI [43]: > 100 µM
TGI [44]: > 100 µM
TGI [45]: > 100 µM
TGI [46]: > 100 µM
TGI [47]: > 100 µM
TGI [48]: > 100 µM
TGI [49]: > 100 µM
TGI [50]: > 100 µM
TGI [51]: > 100 µM
TGI [52]: > 100 µM
TGI [53]: > 100 µM
TGI [54]: > 100 µM
TGI [55]: > 100 µM

COc1ccc(C(c2c(O)c3ccccc3n(C)c2=O)c2c(O)c3ccccc3n(C)c2=O)cc1
TGI [2]: > 100 µM
TGI [3]: 90.7 µM
TGI [4]: > 100 µM
TGI [5]: > 100 µM
TGI [6]: > 100 µM
TGI [7]: > 100 µM
TGI [8]: 45.7 µM
TGI [9]: > 100 µM
TGI [56]: > 100 µM
TGI [10]: > 100 µM
TGI [11]: > 100 µM
TGI [12]: > 100 µM
TGI [57]: > 100 µM
TGI [13]: 54.6 µM
TGI [14]: > 100 µM
TGI [58]: > 100 µM
TGI [15]: 66.7 µM
TGI [17]: > 100 µM
TGI [18]: > 100 µM
TGI [19]: > 100 µM
TGI [20]: > 100 µM
TGI [21]: > 100 µM
TGI [22]: > 100 µM
TGI [23]: > 100 µM
TGI [24]: 69.5 µM
TGI [59]: > 100 µM
TGI [25]: > 100 µM
TGI [26]: > 100 µM
TGI [27]: > 100 µM
TGI [28]: 60 µM
TGI [29]: 46.4 µM
TGI [30]: > 100 µM
TGI [31]: > 100 µM
TGI [32]: > 100 µM
TGI [33]: > 100 µM
TGI [34]: > 100 µM
TGI [35]: > 100 µM
TGI [37]: > 100 µM
TGI [38]: > 100 µM
TGI [39]: 67.5 µM
TGI [40]: > 100 µM
TGI [41]: > 100 µM
TGI [42]: > 100 µM
TGI [43]: > 100 µM
TGI [44]: > 100 µM
TGI [45]: > 100 µM
TGI [46]: > 100 µM
TGI [47]: 63.3 µM
TGI [48]: > 100 µM
TGI [49]: 98 µM
TGI [50]: > 100 µM
TGI [51]: 44.2 µM
TGI [53]: > 100 µM
TGI [54]: > 100 µM
TGI [55]: > 100 µM
